Usually % Inhibition stands for the relative decrease from the control value, in per cent. Broadly, the IC50 is the concentration that inhibits the measured activity by half.

The results in this text go back to PMC4747952, “Development of TASP0410457 (TASP457), a novel dihydroquinolinone derivative as a PET radioligand for central histamine H3 receptors” (EJNMMI Research, 2016).

Series [1] deals with Ca2+ channel (L, dihydropyridine site). Description: Off-target binding (Cerep). Set-up: unit of the concentration uncertain. From the text: (§1) Off-target binding of compounds assessed using an in-house assay (M4) and a commercial battery (all
(§2) others) (Cerep, Celle L'Evescault, France).
(§3) Concentration % Inhibition Concentration % Inhibition Concentration % Inhibition […]

The test system of series [2] is Benzodiazepine (central). Description: Off-target binding (Cerep). Set-up: unit of the concentration uncertain.
From the text: as §1, §2, §3

The target in series [3] is T1, rat H3R (Rattus norvegicus, UniProt Q9QYN8).
T1 construct: Rat cerebral cortex and monkey frontal cortex were dissected; from tissue; host or cells: rat cerebral cortex membranes
T1 sequence (Q9QYN8 whole entry): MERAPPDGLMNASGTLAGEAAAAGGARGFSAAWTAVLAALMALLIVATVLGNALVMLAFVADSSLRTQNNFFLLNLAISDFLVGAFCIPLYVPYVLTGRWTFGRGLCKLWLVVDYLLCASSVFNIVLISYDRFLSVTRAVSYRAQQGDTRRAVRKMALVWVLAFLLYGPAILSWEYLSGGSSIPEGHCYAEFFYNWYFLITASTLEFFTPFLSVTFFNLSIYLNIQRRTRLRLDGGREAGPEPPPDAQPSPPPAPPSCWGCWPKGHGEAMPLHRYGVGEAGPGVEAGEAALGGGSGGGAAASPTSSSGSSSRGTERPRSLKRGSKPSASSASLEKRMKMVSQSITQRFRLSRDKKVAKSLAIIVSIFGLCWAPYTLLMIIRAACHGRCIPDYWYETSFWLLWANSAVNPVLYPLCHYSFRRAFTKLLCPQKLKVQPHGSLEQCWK
Nature of the series: In vitro binding to H3Rs, rat cerebral cortex membranes, [^3H]N-α-methylhistamine. The note with it: 1 nM [^3H]N-α-methylhistamine, geometric mean, n = 3, read-out: Affinity for H3Rs Rat, IC50. On the procedure:
Rat cerebral cortex and monkey frontal cortex were dissected, homogenized with 50 mM Tris buffer (pH 7.4) containing 5 mM EDTA and Protease Inhibitor Cocktail Tablets (Roche Diagnostics, Indianapolis, IN) and centrifuged at 48,000×g for 15 min at 4 °C. The pellets were then suspended in binding buffer (50 mM Tris containing 5 mM EDTA, pH 7.4) and stored at −80 °C as membrane preparations.
The membrane preparations were thawed and incubated in the binding buffer containing 0.1 % bovine serum albumin, 1 nM [^3H]N-α-methylhistamine (PerkinElmer, Waltham, MA) with various concentrations of a dihydroquinolinone derivative (i.e., test compound) at 25 °C for 1 h. The reaction was terminated by rapid filtration through 96-well GF/C filter plates (PerkinElmer) presoaked with 0.5 % polyethyleneimine (Wako, Osaka, Japan). After washes with ice-cold binding buffer, the plates were dried and filled with Microscint-o (PerkinElmer). The radioactivity retained on the filters was counted using a TopCount NXT (PerkinElmer). Total and nonspecific radioligand binding was determined by reaction without and with 10 μM thioperamide and clobenpropit, respectively. The specific radioligand binding was then calculated by subtracting the nonspecific binding from the total binding. The IC50 value for inhibition of the radioligand binding by the test compound was determined using a nonlinear fit of the concentration-response curve for each test compound using SAS 9.2 (SAS Institute Inc., Cary, NC). Data were expressed as the geometric means of IC50 values from three independent experiments run in duplicate.

Series [4] in a line: Ex vivo pharmacokinetic assessment in the rat brain using LC-MS/MS. The note with it: 10 μg/kg intravenous, n = 3. On the procedure:
The rats were decapitated at 5, 15, 30, 60, and 120 min after intravenous administration of TASP0390136, TASP0390174, TASP0410426, TASP0410427, TASP0410457, or TASP0434988 at a dose of 10 μg/kg. The cerebellum and forebrain, including the medial prefrontal and cingulate cortices and anterior striatum, were dissected and homogenized with four volumes of distilled water. The homogenates were protein-precipitated with methanol/acetonitrile (1:9) and were centrifuged at 3974×g for 10 min at 4 °C. The resultant supernatants were injected into an HPLC (Shimadzu-20AD, Shimadzu, Kyoto, Japan) and a tandem mass spectrometer (API4000, AB SCIEX, Framingham, MA) using a Shim-pak XR-ODS column (3.0 × 30 mm, Shimadzu) at 50 °C. TASP0410457 was eluted with a mobile phase consisting of 10 mM of ammonium acetate/acetonitrile with a linear gradient at a flow rate of 1.3 mL/min, and ammonium formate instead of ammonium acetate was used for eluting the other five compounds. […] The eluted TASP0390136, TASP0390174, TASP0410426, TASP0410427, TASP0410457, and TASP0434988 were ionized using an electrospray interface and were detected using reaction monitoring of the transitions of m/z 395 to 91, 395 to 98, 413 to 98, 425 to 98, 408 to 138, and 407 to 138, respectively. A dihydroquinolinone compound (6-[(1-cyclobutylpiperidin-4-yl)oxy]-1-(3,5-difluorophenyl)-3,4-dihydroquinolin-2(1H)-one) was used as an internal standard for all assays. The lower qualification limit for TASP0410457 was 0.05 ng/g tissue, and the limit for the other five compounds was 0.15 ng/g tissue. Data were expressed as standardized uptake values (SUVs) calculated as follows: SUV=tissueconcentrationg/g×bodyweightg/injecteddoseg

The test system of series [5] is K+ channel KV. Description: Off-target binding (Cerep). Set-up: unit of the concentration uncertain.
From the text: (§4) Off-target binding of compounds assessed using an in-house assay (M4) and a commercial battery (all others) (Cerep, Celle L'Evescault, France).
as §3
(§5) *1α -amino-3-hydroxy-5-methyl-4-isoxazolepropionic acid receptor; *2N-methyl-D-aspartate receptor; *3Strychnine-insensitive glycine-binding module of NMDA receptor; *4Phencyclidine-binding site of NMDA receptor; *5ATP-sensitive potassium channel; *6Voltage-dependent potassium channel; *7small conductance calcium-activated potassium channel; *85-hydroxytryptamine 1A receptor

Series [6] has as its system K+ channel SKCa. Description: Off-target binding (Cerep). Set-up: unit of the concentration uncertain.
From the text: as §4, §3, §5

In series [7] the test system is Glutamate NMDA. Description: Off-target binding (Cerep). Set-up: unit of the concentration uncertain.
From the text: as §4, §3, §5

Series [8] deals with K+ channel KATP. Nature of the series: Off-target binding (Cerep). Set-up: unit of the concentration uncertain.
From the text: as §4, §3, §5

Series [9] relates to Glutamate AMPA. Description: Off-target binding (Cerep). Set-up: unit of the concentration uncertain.
From the text: as §4, §3, §5

Series [10] concerns Glutamate Glycine (Strychnine-insensitive glycine-binding module of NMDA receptor). Nature of the series: Off-target binding (Cerep). Also noted: unit of the concentration uncertain.
From the text: as §4, §3, §5

Series [11] relates to Glutamate PCP (Phencyclidine-binding site of NMDA receptor). Nature of the series: Off-target binding (Cerep). Set-up: unit of the concentration uncertain.
From the text: as §4, §3, §5

The nature of series [12]: Lipophilicity measurement (Log D). The format is physicochemical. The note with it: pH 7.4; octanol and phosphate buffer (pH7.4); read-out: Log D7.4. On the procedure: Lipophilicity measurement
Log D was determined by partitioning each compound between an octanol and phosphate buffer […]
each layer using HPLC with ultraviolet (UV) detection.
Assays for P-glycoprotein-mediated transcellular transport of compounds LLC-GA5-COL300 cells expressing human P-glycoprotein were seeded at a density of 4.5 × 10^5 cells/cm2 onto polycarbonate membrane filters of 12-well cell culture insert plates and cultured at 37°C in a humidified incubator containing 5% CO2 for 3 days. After each cell monolayer was pre-incubated at 37°C for 20 min in Hank’s balanced salt solution containing 10 mM HEPES (HBSS buffer), transcellular transport experiments were initiated by adding the test compound solution to the apical or basal side of the cell culture inserts. HBSS buffer was sampled from the compartment opposite of that spiked with the test compounds at 0.5, 1, 1.5 and 2 h after initiation of the experiments, and concentrations of the test compounds were determined using LC-MS/MS. The apparent permeability coefficient (Papp) of the test compounds was calculated using the following equation:
Papp= dQ/dt / C0 / A Eq. 1, where dQ/dt represents the rate of permeation of the compounds, C0 is the initial concentration of the test compounds ([…]), and A is the area of the monolayer. The efflux ratio (ER) was defined as […]

[13] abbreviates: Concentration 10 (unit uncertain).
Where [14] appears, read: Concentration 1 (unit uncertain).

For the compound `COc1ccc(N2C(=O)CCc3cc(OCCCN4CCC[C@H]4C)ccc32)cc1` [TASP0390136, 1-(4-methoxyphenyl)-6-{3-[(2R)-2-methylpyrrolidin-1-yl]propoxy}-3,4-dihydroquinolin-2(1H)-one], the “% Inhibition” value in series [1] (setting [13]) is 20%; in series [2] (setting [13]), -19%; in series [5] (setting [13]), -15%; in series [6] (setting [13]), 7%; in series [7] (setting [13]) it was -2%; in [8] (setting [13]), 22%. For the same compound, the “% Inhibition” value in series [9] (setting [13]) was -18%; in series [10] (setting [13]), 12%; in series [11] (setting [13]) it was -2%. Also, in [3], the IC50 came out at 2.74 nM. In series [4], the “Mean peak concentration in the forebrain expressed as SUV” value (shortened to “Mean peak concentration”) is given as 0.30 SUV. For the same compound, in series [12], the logD turned out to be 1.36.
Turning to `COc1ccc(N2C(=O)CCc3cc(OC4CCN(C5CCC5)CC4)ccc32)cn1` [TASP0410457, 6-[(1-Cyclobutylpiperidin-4-yl)oxy]-1-(6-methoxypyridin-3-yl)-3,4-dihydroquinolin-2(1H)-one], the “% Inhibition” value is -23% in series [1] (setting [13]); -4% in [2] (setting [13]); -11% in [5] (setting [13]); -1% in series [6] (setting [13]); 11% in series [7] (setting [13]); 5% in series [8] (setting [13]). Besides, the “% Inhibition” value in series [9] (setting [13]) is 1%; in series [10] (setting [13]), -5%; in [11] (setting [13]), -2%. The IC50 in series [3] stood at 2.34 nM. Further, the “Mean peak concentration” value in series [4] came out at 0.85 SUV. The logD in series [12] is 1.79.
Turning to `COc1ccc(N2C(=O)CCc3cc(OC4CCN(C5CCC5)CC4)ccc32)cc1` [TASP0434988, 6-[(1-cyclobutylpiperidin-4-yl)oxy]-1-(4-methoxyphenyl)-3,4-dihydroquinolin-2(1H)-one], the “% Inhibition” value in series [1] (setting [14]) is on record as -27%; in [2] (setting [14]) it was -2%; in [5] (setting [14]), -1%; in series [6] (setting [14]), -2%; in series [7] (setting [14]), -7%; in series [8] (setting [14]), -4%. Further, the “% Inhibition” value in series [9] (setting [14]) was 0%; in series [10] (setting [14]), -8%; in series [11] (setting [14]) it was 9%. Moreover, in [3], the IC50 was determined as 0.783 nM. For the same compound, the “Mean peak concentration” value in series [4] amounted to 0.58 SUV. Besides, the logD in series [12] was determined as 2.22.
